Columns and labels:
[1] = system: AGS cell line, a stomach cancer cell line; assay: Apoptosis of AGS stomach cancer cell line by Annexin/PI flow cytometry (SD217); type: cell-based; conditions: 48 hours
Method: It was determined whether SD217, a novel compound of the present invention, may specifically kill stomach cancer cells. Specifically, 2×10^5 of a AGS cell line, a stomach cancer cell line, was inoculated into a 6-well plate and then treated with SD217, the novel compound of the present invention, at a concentration of 0.2 mM after overnight, and after 48 hours, stained with Annexin/PI, and then apoptotic cells were analyzed by flow cytometry. As a control group, a Vehicle group treated with the same amount of PBS was used. Thereafter, early apoptotic cells were confirmed, a ratio of late apoptotic/necrotic cells was confirmed, and thus death of the stomach cancer cell line was confirmed.
It was confirmed whether SD217, the novel compound of the present invention, induced early and late apoptosis in stomach cancer cell line. Specifically, 2×10^5 of a AGS cell line, a stomach cancer cell line, was inoculated into a 6-well plate and then treated with SD217, the novel compound of the present invention, at concentrations of 1, 5, 10, 20, and 50 mM after overnight, and after 48 hours, stained with Annexin/PI, and then apoptotic cells were analyzed by flow cytometry.

[2] = system: AGS cell line, a stomach cancer cell line; assay: Stomach cancer transplant animal model (AGS subcutaneous in NSG mice), tumor growth; type: in vivo; conditions: NSG mice with AGS tumor, 50 mg/kg orally daily, compared to the Vehicle group (FIG. 3)
Method: It was confirmed whether SD217, the novel compound of the present invention, inhibited tumor growth. Specifically, a stomach cancer transplant animal model was fabricated by subcutaneously injecting 5×10^6 of the AGS cell line, a stomach cancer cell line, into 6-8-week-old immunodeficient mice (NSG). Thereafter, SD217 was orally administered daily at a concentration of 50 mg/kg. After AGS cell injection and SD217 administration, tumor size was measured three times weekly using calipers, and tumor volume was calculated by substituting the lengths in long axis and short axis of the tumor into Equation 1 below. As a control group, a Vehicle group injected with the same amount of PBS was used.

[3] = system: Programmed Death-Ligand 1 (PD-L1); assay: PD-L1 positive cells in AGS stomach cancer cell line by flow cytometry; type: cell-based; conditions: AGS cells, 0.2, 0.5, and 1 mM, compared to the Vehicle group (FIG. 2)
Text: It was intended to confirm the expression of a Programmed Death-Ligand 1 (PD-L1) protein, an immunity reduction marker of stomach cancer cells, by SD217, a novel compound of the present invention. The PD-L1 protein was a surface protein of stomach cancer cells, and the PD-L1 is a protein that evaded the immune responses of T cells by binding to programmed cell death-1 (PD-1), a surface protein of activated T cells. […] Specifically, in the same manner as in Example 1, AGS cells, a stomach cancer cell line, were treated with 0.2, 0.5, and 1 mM of SD217 and reacted. Thereafter, PD-L1 positive cells were analyzed by flow cytometry. As a control group, a Vehicle group treated with PBS was used, and as a positive control group, 1 mM Metformin was used.

[4] = AGS cells, 1, 5, 10, 20, and 50 mM, compared to the Vehicle group (FIG. 4)

Which apoptosis ([1]; AGS cells, 0.2 mM, Annexin/PI, compared to the Vehicle group (FIG. 1)) does the source give for `N=C(N)NC(=N)Nc1ccc(F)cc1F` [SD217, 1-(2,4-difluorophenyl) biguanide] here?
Its apoptosis is “significantly increased”.

What about the early apoptosis [1, 4] of the same compound?
The early apoptosis was “induced in a concentration-dependent manner”.

What about the late apoptosis [1, 4] of the same compound?
The late apoptosis was “induced in a concentration-dependent manner”.

What about the tumor growth [2] of the same compound?
Its tumor growth is “significantly inhibited”.

And the tumor volume [2]?
The tumor volume was “significantly reduced”.

And the “number of PD-L1 positive cells” value [3]?
Its value is “significantly reduced”.

Source: US20240374545A1, “DIAGNOSIS OF IMMUNITY REDUCTION THROUGH INTESTINAL MICROFLORA ANALYSIS OF STOMACH CANCER PATIENTS, AND THERAGNOSTIC COMPOSITION USING INTESTINAL MICROFLORA” (THE CATHOLIC UNIVERSITY OF KOREA INDUSTRY-ACADEMIC …, priority 2022, published 2024)
